Laboratory results from patent US20230158042A1, “COMBINATION CANCER THERAPY WITH PENTAAZA MACROCYCLIC RING COMPLEX AND HORMONE THERAPY AGENT” (Galera Labs, LLC, priority 2020, published 2023).

Columns and labels:
[1] = tested on: MCF7-HTR cells; assay: Ki-67 staining in MCF7-HTR cells; assay type: cell-based, human; conditions: 5 µM GC4419 for 5 days
Excerpt: With respect to FIG. 16a, the data from FIG. 7i, where MCF7-HTR cells were stained for Ki-67, as well as DAPI, were counted with ImageJ and quantified for average Ki-67 intensity as shown in the bar graph. With respect to FIGS. 16b and 16c, T47D and T47D-HTR cells were stained for Ki-67 as well as DAPI, and particles in the nucleus were counted with ImageJ and quantified for average Ki-67 intensity as shown in the bar graph. In FIGS. 16d and 16e, MCF7-HTR cells, and in FIGS. 16f and 16g, T47D-HTR cells, were treated with 5 µM GC4419 and/or 1 µM 4-hydroxy-Tam for 5 days, and then stained for Ki-67 as well as DAPI. Quantifications of average Ki-67 intensity are shown in the bar graphs. All experiments were done in triplicate. Error bars represent ± 1 SEM. ***p < 0.001. Representative images are shown.
Cells seeded on glass coverslips were fixed in 4% paraformaldehyde and then blocked with 1% BSA and 10% normal goat serum in 1x PBS. Cells were incubated with anti-Ki-67 (c-bioscience) antibody in 1x PBS followed by incubation with goat anti-rabbit IgG conjugated with Alexa Fluor 647 (Invitrogen) in 1x PBS with 5% goat serum. Cells were washed in 1x PBS, mounted, and imaged with a fluorescence microscope. Fluorescence images were captured using a laser scanning confocal microscope (Nikon A1 R). The paired images in all the figures were collected at the same gain and offset settings. […]

[2] = tested on: MCF7-MnSOD^K68Q cells; assay: Ki-67 staining in MCF7-MnSOD^K68Q cells; assay type: cell-based, human; conditions: 5 µM GC4419 for 5 days
Protocol: (§1) MCF7-MnSOD^K68Q cells (in FIGS. 17a and 17b) and T47D-MnSOD^K68Q cells (in FIGS. 17c and 17d) were treated with 5 µM GC4419 and/or 1 µM 4-hydroxy-Tam for 5 days, and then stained for Ki-67 as well as DAPI. Quantifications of average Ki-67 intensity are shown in the bar graphs. In FIG. 17e, MCF7 and MCF7-HTR cells were implanted into both hind limbs of nude mice and tumor volumes were measured every 3 days for 6 weeks and the number of tumors that successfully implanted versus the total number of mice infected with MCF7 and MCF7-HTR as well as the average tumor weight and tumor size are shown. Representative images are shown. All experiments were done in triplicate. Error bars represent ± 1 SEM. ***p < 0.001.
(§2) Cells seeded on glass coverslips were fixed in 4% paraformaldehyde and then blocked with 1% BSA and 10% normal goat serum in 1x PBS. Cells were incubated with anti-Ki-67 (c-bioscience) antibody in 1x PBS followed by incubation with goat anti-rabbit IgG conjugated with Alexa Fluor 647 (Invitrogen) in 1x PBS with 5% goat serum. Cells were washed in 1x PBS, mounted, and imaged with a fluorescence microscope. Fluorescence images were captured using a laser scanning confocal microscope (Nikon A1 R). The paired images in all the figures were collected at the same gain and offset settings. Post-collection processing was applied uniformly to all paired images.

[3] = tested on: T47D-MnSOD^K68Q cells; assay: Ki-67 staining in T47D-MnSOD^K68Q cells; assay type: cell-based, human; conditions: 5 µM GC4419 for 5 days
Protocol: as §1, §2

[4] = tested on: LNCaP-MnSOD^K68Q cells; assay: Clonogenic cell survival in LNCaP-MnSOD^K68Q cells; assay type: cell-based; conditions: GC4419 20 µM for 5 days, treated with ENZ
Protocol: In FIG. 20a, clonogenic cell survival experiments were done in LNCaP-ENZR cells infected with lenti-MnSOD^K68R or lenti-MnSOD^K68Q, in the presence of ENZ (10 µM). In FIG. 20b, clonogenic survival assays were done in LNCaP cells infected with lenti-MnSOD^WT, lenti-MnSOD^K68R, and lenti-MnSOD^K68Q, and selected with neomycin, and placed in 10 µM of ENZ for 72 hr. Error bars ± 1 SEM. Experiments were done in triplicate. **p < 0.01.
(§3) FIGS. 21a-21b are a chart and graph showing that pharmacologically mimicking the activity of deacetylated lysine 68 MnSOD with a manganese pentaazamacrocyclic dismutase mimetic both inhibited the growth of LNCaP-ENZR tumors and reversed the enzalutamide resistance in LNCaP-ENZR / LNCaP—MnSOD^K68Q cells and tumors. In FIG. 21a, clonogenic cell survival experiments were performed in LNCaP-ENZR (left two bars) and LNCaP—MnSOD^K68Q (right two bars) treated with ENZ, with or without GC4419 (20 µM) for 5 days. […] Tumor volumes were measured three times a week for 46 days. For each group n=10. Error bars ± 1 SEM. All experiments done in triplicate. **p < 0.01.

[5] = tested on: LNCaP-MnSOD^K68Q xenografts; assay: LNCaP-MnSOD^K68Q hind limb xenograft growth in nude mice; assay type: in vivo; conditions: GC4419 10 mg/kg, once per week; tumor volumes for 46 days
Protocol: as §3

[6] = tested on: MCF7-MnSOD^K68Q cells; assay: Clonogenic cell survival in MCF7-MnSOD^K68Q cells; assay type: cell-based, human; conditions: GC4419 10 µM alone
Protocol: FIGS. 25a-25b show clonogenic cell survival studies in MCF7-MnSOD^K68Q cells exposed to either: Fulv at 100 nM (in FIG. 25a); or Palb at 0.5 µM (in FIG. 25b) using standard methods. […] Error bars are ± 1 SEM. Experiments in triplicate. *** p < 0.001.
Clonogenic cell survival assay. For the clonogenic survival analysis, exponentially growing cells were replated using appropriate dilutions, and clonogenic survival was evaluated after 14 days in regular growth medium. Cells were stained with crystal violet, and colonies of >50 cells were counted and utilized to calculate clonogenic survival^46.

[7] = tested on: MCF7-Cispl-R cells; assay: Cisplatin resistance phenotype of MCF7-Cispl-R cells (clonogenic cell survival); assay type: cell-based, human; conditions: treated with GC4419
Protocol: FIGS. 27a-27c are an image and graphs showing that MnSOD—AcK68/ROS/HIF2α dysregulation directs PanR (multi-therapy resistance to cancer therapeutics). […] In FIG. 27b, ROS was measured in MCF7-Cispl-R cells, compared with MCF7 cells, using an Amplex Red assay. In FIG. 27c, MCF7 and MCF7-MnSOD^K68Q cells were measured by clonogenic cell survival assays, without and with cisplatin exposure, and infected with scrambled (C) or HIF2α shRNA. All experiments were done in triplicate. Error bars are ± 1 SEM. * p < 0.05.
To evaluate clonogenic cell survival by testing cell growth at low density, 500 exponentially growing cells were plated in triplicate in 6-well plates using serial dilution, and the growth of the cells was examined throughout 14 days in regular growth medium. Cells were fixed with 70% ethanol for 5 minutes and then stained with 0.5% crystal violet (in 25% methanol) for 20 minutes. Photos of stained plates were taken, and colonies of more than 50 cells were counted and used to calculate clonogenic survival.

[8] = tested on: Tam resistant as well as loss of Sirt3 tumor cell lines; assay: In vitro Tam resistance in Tam resistant and loss of Sirt3 tumor cell lines; assay type: cell-based; conditions: data not shown
[9] = tested on: MCF-7-MnSOD^K68Q cells; assay: Clonogenic cell survival after 5 Gy ionizing radiation in MCF-7-MnSOD^K68Q cells; assay type: cell-based, human; conditions: 5 µM GC4419 for 5 days
Protocol: FIGS. 30a-30b are plots showing that mimicking acetylation of MnSOD—K68 with MnSOD^K68Q expression induces ionizing radiation resistance (IRR) in breast cancer cells, and that pharmacologically mimicking the activity of deacetylated lysine 68 MnSOD with a manganese pentaazamacrocyclic dismutase mimetic reverses this IRR. […] All experiments were done in triplicate. Error bars represent ± 1 SEM. ***p < 0.001. Data were analyzed by a t-test.

[10] = tested on: mice lacking Sirt3; conditions: IP injection with 2 mg/kg 30 minutes before IR; cited from earlier work

## [Cl][Mn][Cl].c1cc2nc(c1)CN[C@H]1CCCC[C@@H]1NCCN[C@H]1CCCC[C@@H]1NC2 [GC4419]
[1]
  Ki-67 IHC staining: decreased Ki-67 IHC staining
[2]
  Ki-67 IHC staining: reversed the increase in Ki-67 IHC staining
[3]
  Ki-67 IHC staining: reversed the increase in Ki-67 IHC staining
[4]
  ENZR phenotype (clonogenic cell survival): converted to a sensitive phenotype
[5]
  xenograft growth: significant inhibition of xenograft growth
[6]
  cell growth (clonogenic): inhibited the growth of MnSOD^K68Q breast cancer cells
[7]
  Cispl-R phenotype: converted the Cispl-R cells to a sensitive phenotype
[8]
  Tam resistance: reverses Tam resistance
[9]
  ionizing radiation resistance (IRR) phenotype, clonogenic cell survival: reversed the IRR phenotype
[10]
  liver damage: attenuated liver damage
